In patent publication US20150344466A1 (SUMITOMO CHEMICAL COMPANY, LIMITED, priority 2013, published 2015):

Columns and labels:
Type in all cases: in vivo
[1] = test system: Blattella germanica; test: Knockdown spray test on Blattella germanica, 0.1% w/v oil formulation (Test Example 2); conditions: topical, 0.25 h, active ingredient 0.1% w/v, 1.5 ml sprayed, within 15 minutes, read-out: knockdown rate of the test insects within 15 minutes
Procedure: Ten Blattella germanica (5 males and 5 females) were released in a test container (8.75 cm in diameter, 7.5 cm in height, and the bottom made of 16 mesh metallic wire) with the inner wall on which butter was applied, and the container was placed on the bottom of a test chamber (bottom: 46 cm×46 cm, height: 70 cm). From a height of 60 cm above the upper surface of the container, 1.5 ml of the test drug solution was sprayed using a spray gun (a spraying pressure of 0.42 kg/cm^2). Thirty seconds after spraying, the container was taken out from the test chamber, and after 2 minutes, 5 minutes and 15 minutes, the number of knocked-down insects was counted to obtain a knockdown rate. The knockdown rate was calculated by the following equation.
(§1) Knockdown Rate (%)=(Number of Knocked-down Insects/Number of Tested Insects)×100

[2] = test system: Musca domestica; test: Filter paper/sucrose bait death rate test on Musca domestica (Test Example 5); conditions: female imagoes of Musca domestica, 0.7 ml on filter paper, after 24 hours
Procedure: A filter paper having a diameter of 5.5 cm was spread on the bottom of a polyethylene cup having the same diameter and 0.7 ml of the test drug solution was added dropwise onto the filter paper, and 30 mg of sucrose was uniformly placed as bait.
Into the polyethylene cup, 10 female imagoes of Musca domestica were released, and the cup was sealed with a lid. After 24 hours, the life and death of Musca domestica was examined, and the death rate was calculated. The death rate was calculated by the following equation.
Death rate (%)=(Number of dead insects/Number of tested insects)×100

[3] = test system: Culex pipiens pallens; test: Knockdown spray test on adult Culex pipiens pallens (Test Example 4); conditions: topical, 0.25 h, active ingredient 0.1% w/v, 0.5 ml sprayed, within 15 minutes, read-out: knockdown rate of the test insects within 15 minutes
Procedure: Ten adult Culex pipiens pallens were released in a polyethylene cup (bottom diameter: 10.6 cm), and the cup was covered with a 16-mesh nylon gauze. The polyethylene cup was placed on the bottom of a test chamber (bottom: 46 cm×46 cm, height: 70 cm). From a height of 30 cm above the upper surface of the polyethylene cup, 0.5 ml of the test drug solution was sprayed using a spray gun (a spraying pressure of 0.4 kg/cm^2). Immediately after spraying, the cup was taken out from the test chamber, and after 2 minutes, 5 minutes and 15 minutes, the number of knocked-down insects was counted to obtain a knockdown rate. The knockdown rate was calculated by the following equation.
as §1

SMILES | pest or weed control at 0.1 % strength [1] [%] | pest or weed control at 500 ppm [2] [%] | pest or weed control at 0.1 % strength [3] [%]
O=C(NCC1CCOC1)c1cc(COCc2ccccc2Cl)on1 (stereo not drawn) [(66), N-(tetrahydrofuran-3-ylmethyl)-5-(2-chlorobenzyloxymethyl)isoxazole-3-carboxamide] | ≥ 80 | ≥ 90 | ≥ 80
O=C(NCC1CCOCC1)c1cc(COCc2ccccc2Cl)on1 [(67), N-(tetrahydropyran-4-ylmethyl)-5-(2-chlorobenzyloxymethyl)isoxazole-3-carboxamide] | ≥ 80 | ≥ 90 | ≥ 80
O=C(NCC1CCOC1)c1cc(COCc2cccc(Cl)c2)on1 (stereo not drawn) [(68)] | ≥ 80 | ≥ 90 | ≥ 80
Cc1cccc(COCc2cc(C(=O)NCC3CCOC3)no2)c1 (stereo not drawn) [(82), N-(tetrahydrofuran-3-ylmethyl)-5-(3-methylbenzyloxymethyl)isoxazole-3-carboxamide] | ≥ 80 | ≥ 90 | ≥ 80
COc1cccc(COCc2cc(C(=O)NCC3CCOC3)no2)c1 (stereo not drawn) [(84), N-(tetrahydrofuran-3-ylmethyl)-5-(3-methoxybenzyloxymethyl) isoxazole-3-carboxamide] | ≥ 80 | ≥ 90 | ≥ 80
Cc1c(C(=O)NCC2CCOC2)noc1COCc1cccc(F)c1 (stereo not drawn) [(217), N-(tetrahydrofuran-3-ylmethyl)-5-(3-fluorobenzyloxymethyl)-4-methylisoxazole-3-carboxamide] | ≥ 80 |  | ≥ 80
Cc1c(C(=O)NCC2CCOC2)noc1CCCc1ccccc1 (stereo not drawn) [(221), N-(tetrahydrofuran-3-ylmethyl)-4-methyl-5-(3-phenylpropyl)isoxazole-3-carboxamide] | ≥ 80 |  | ≥ 80
Cc1ccccc1COCc1cc(C(=O)NCC2CCOC2)no1 (stereo not drawn) [(226)] | ≥ 80 |  | ≥ 80
O=C(NCC1CCOC1)c1cc(CCCc2ccc3ccccc3c2)on1 (stereo not drawn) [(228), N-(tetrahydrofuran-3-ylmethyl)-5-[3-(2-naphthyl)propyl]isoxazole-3-carboxamide] | ≥ 80 |  | ≥ 80
O=C(NCC1COCCO1)c1cc(CCCc2ccc3ccccc3c2)on1 (stereo not drawn) [(230), N-(1,4-dioxan-2-ylmethyl)-5-[3-(2-naphthyl)propyl]isoxazole-3-carboxamide] | ≥ 80 |  | ≥ 80
O=C(NCC1CCOC1)c1cc(COc2ccc3c(c2)CCCC3)on1 (stereo not drawn) [(239), N-(tetrahydrofuran-3-ylmethyl)-5-(5,6,7,8-tetrahydronaphthalen-2-yl)oxymethylisoxazole-3-carboxamide] | ≥ 80 |  | ≥ 80
O=C(NCC1CCOC1)c1cc(CSCc2ccc3ccccc3c2)on1 (stereo not drawn) [(253)] | ≥ 80 |  | ≥ 80
O=C(NCC1CCOC1)c1noc(COCc2ccc3ccccc3c2)c1F (stereo not drawn) [(255), N-(tetrahydrofuran-3-ylmethyl)-5-(2-naphthylmethoxymethyl)-4-fluoroisoxazole-3-carboxamide] | ≥ 80 |  | ≥ 80
O=C(NCC1CCOC1)c1cc(COCc2cc3ccccc3cc2F)on1 (stereo not drawn) [(257), N-(tetrahydrofuran-3-ylmethyl)-5-(3-fluoro-2-naphthylmethoxymethyl)isoxazole-3-carboxamide] | ≥ 80 |  | ≥ 80
O=C(NCC1CCOC1)c1cc(COCc2ccc(F)c(Cl)c2)on1 (stereo not drawn) [(261), N-(tetrahydrofuran-3-ylmethyl)-5-(3-chloro-4-fluorobenzyloxymethyl)isoxazole-3-carboxamide] | ≥ 80 |  | ≥ 80
O=C(NCC1CCOC1)c1cc(COCc2ccc(F)c(F)c2)on1 (stereo not drawn) [(263), N-(tetrahydrofuran-3-ylmethyl)-5-(3,4-difluorobenzyloxymethyl)isoxazole-3-carboxamide] | ≥ 80 |  | ≥ 80

SMILES | pest or weed control at 0.1 % strength [1] [%] | pest or weed control at 500 ppm [2] [%] | pest or weed control at 0.1 % strength [3] [%]
O=C(NCC1CCOC1)c1cc(COCc2ccccc2Br)on1 (stereo not drawn) [(265), N-(tetrahydrofuran-3-ylmethyl)-5-(2-bromobenzyloxymethyl)isoxazole-3-carboxamide] | ≥ 80 |  | ≥ 80
Cc1cc(C)cc(COCc2cc(C(=O)NCC3CCOC3)no2)c1 (stereo not drawn) [(271), N-(tetrahydrofuran-3-ylmethyl)-5-(3,5-dimethylbenzyloxymethyl)isoxazole-3-carboxamide] |  | ≥ 90 | ≥ 80
O=C(NCC1CCOC1)c1cc(COCc2c(F)cccc2F)on1 (stereo not drawn) [(275), N-(tetrahydrofuran-3-ylmethyl)-5-(2,6-difluorobenzyloxymethyl)isoxazole-3-carboxamide] |  | ≥ 90 | ≥ 80
O=C(NCC1CCOC1)c1cc(COCc2ccc(Cl)c(F)c2)on1 (stereo not drawn) [(276), N-(tetrahydrofuran-3-ylmethyl)-5-(4-chloro-3-fluorobenzyloxymethyl)isoxazole-3-carboxamide] | ≥ 80 |  | ≥ 80
COc1ccc(COCc2cc(C(=O)NCC3CCOC3)no2)cc1F (stereo not drawn) [(277), N-(tetrahydrofuran-3-ylmethyl)-5-(3-fluoro-4-methoxybenzyloxymethyl)isoxazole-3-carboxamide] | ≥ 80 |  | ≥ 80
O=C(NCC1CCOC1)c1noc(COCc2ccccc2F)c1F (stereo not drawn) [(298), N-(tetrahydrofuran-3-ylmethyl)-5-(2-fluorobenzyloxymethyl)-4-fluoroisoxazole-3-carboxamide] | ≥ 80 |  | ≥ 80
O=C(NCC1CCOC1)c1cc(Cc2cccs2)on1 (stereo not drawn) [(308), N-(tetrahydrofuran-3-ylmethyl)-5-(2-thienylmethyl)isoxazole-3-carboxamide] |  | ≥ 90 | ≥ 80
COc1cccc(Cc2cc(C(=O)NCC3CCOC3)no2)c1 (stereo not drawn) [(312), N-(tetrahydrofuran-3-ylmethyl)-5-(3-methoxybenzyl)isoxazole-3-carboxamide] | ≥ 80 |  | ≥ 80
COc1ccccc1Cc1cc(C(=O)NCC2CCOC2)no1 (stereo not drawn) [(317), N-(tetrahydrofuran-3-ylmethyl)-5-(2-methoxybenzyl)isoxazole-3-carboxamide] | ≥ 80 |  | ≥ 80
O=C(NCC1CCOC1)c1cc(Cc2cccc(-c3ccccc3)c2)on1 (stereo not drawn) [(327)] | ≥ 80 |  | ≥ 80
Cc1cccc(Cc2cc(C(=O)NCC3CCOC3)no2)c1 (stereo not drawn) [(328), N-(tetrahydrofuran-3-ylmethyl)-5-(3-methylbenzyl)isoxazole-3-carboxamide] | ≥ 80 |  | ≥ 80
Cc1ccc(Cc2cc(C(=O)NCC3CCOC3)no2)cc1 (stereo not drawn) [(329), N-(tetrahydrofuran-3-ylmethyl)-5-(4-methylbenzyl)isoxazole-3-carboxamide] | ≥ 80 |  | ≥ 80
CC1(CNC(=O)c2cc(COCc3ccc4ccccc4c3)on2)COC1 [(333), N-(3-methyloxetan-3-ylmethyl)-5-(2-naphthylmethoxymethyl)isoxazole-3-carboxamide] |  | ≥ 90 | ≥ 80
CC1(C)CC(NC(=O)c2cc(COCc3ccccc3)on2)CCO1 (stereo not drawn) [(335), N-(2,2-dimethyltetrahydropyran-4-yl)-5-benzyloxymethylisoxazole-3-carboxamide] |  | ≥ 90 | ≥ 80
O=C(NCC1CCOC1)c1cc(COCc2ccc3sccc3c2)on1 (stereo not drawn) [(336), N-(tetrahydrofuran-3-ylmethyl)-5-[(5-benzothiophenyl)methoxymethyl]isoxazole-3-carboxamide] | ≥ 80 |  | ≥ 80
CCc1c(C(=O)NCC2CCOC2)noc1COCc1ccc2ccccc2c1 (stereo not drawn) [(338), N-(tetrahydrofuran-3-ylmethyl)-5-(2-naphthylmethoxymethyl)-4-ethylisoxazole-3-carboxamide] | ≥ 80 |  | ≥ 80
